Measured values reported in patent US20060067978A1, “Process for preparing poly(vinyl alcohol) drug delivery devices” (Bausch & Lomb Incorporated, priority 2004, published 2006).

Test: thermal decomposition of the medicament at curing temperature
Assay type: physicochemical
Conditions: heat stability considered for curing poly(vinyl alcohol) in the presence of the medicament

SMILES: CC1(C)O[C@@H]2C[C@H]3[C@@H]4C[C@H](F)C5=CC(=O)C=C[C@]5(C)[C@@]4(F)[C@@H](O)C[C@]3(C)[C@]2(C(=O)CO)O1 [flucinolone acetonide]
- temperature above which the medicament begins to decompose: about 165 °C
